# Experimental data as given in PubChem BioAssay (NCI).
#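 Assay format: 96-well plates, 48-hour exposure. GI50: concentration for 50% inhibition of growth. TGI: total growth inhibition.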
# What was measured:
# Assay in all cases: NCI tumour cell line growth inhibition, 48 h
# OVCAR-4 ovarian = tested on: OVCAR-4 ovarian
# M14 melanoma = tested on: M14 melanoma
# SR leukemia = tested on: SR leukemia
# CAKI-1 renal = tested on: CAKI-1 renal
# T-47D breast = tested on: T-47D breast
# CCRF-CEM leukemia = tested on: CCRF-CEM leukemia
# UACC-257 melanoma = tested on: UACC-257 melanoma
# NCI-H23 lung = tested on: NCI-H23 lung
# U251 CNS = tested on: U251 CNS
# SF-295 CNS = tested on: SF-295 CNS
Structure (SMILES),TGI (OVCAR-4 ovarian),TGI (M14 melanoma),TGI (SR leukemia),TGI (CAKI-1 renal),TGI (T-47D breast),TGI (CCRF-CEM leukemia),TGI (UACC-257 melanoma),TGI (NCI-H23 lung),TGI (U251 CNS),TGI (SF-295 CNS),GI50 (OVCAR-4 ovarian),GI50 (M14 melanoma),GI50 (SR leukemia),GI50 (CAKI-1 renal),GI50 (T-47D breast),GI50 (CCRF-CEM leukemia),GI50 (UACC-257 melanoma),GI50 (NCI-H23 lung),GI50 (U251 CNS),GI50 (SF-295 CNS)
CC1(N2CCOCC2)CC2C(=[N+]1[O-])CCC/C2=N/O (configuration not stated),> 100 µM,> 100 µM,> 100 µM,> 100 µM,> 100 µM,> 100 µM,> 100 µM,> 100 µM,> 100 µM,> 100 µM,,,,,,,,,,
N#C/C=C(/NC(=O)Nc1ccccc1)N1CCCC1,> 100 µM,> 100 µM,> 100 µM,> 59.8 µM,> 100 µM,> 100 µM,> 100 µM,> 64.7 µM,> 53.8 µM,> 43.8 µM,,,,,,,,,,
COc1ccc(C2c3cc4c(cc3OC(N3CCOCC3)C2C)OCO4)cc1OC (configuration not stated),> 100 µM,52.3 µM,> 100 µM,26.4 µM,> 100 µM,62.5 µM,> 100 µM,> 89.6 µM,29.5 µM,32.8 µM,,,,,,,,,,
CCN(CC)C1=Nc2ccccc2-n2ccnc2C1,> 100 µM,> 100 µM,> 100 µM,> 100 µM,> 100 µM,> 100 µM,> 100 µM,> 100 µM,> 100 µM,> 100 µM,,,,,,,,,,
COC(=O)c1sc2nc(Nc3ccccc3)c(=Nc3ccccc3)sc2c1C,> 100 µM,,> 100 µM,> 100 µM,> 100 µM,> 100 µM,> 100 µM,> 100 µM,> 100 µM,> 100 µM,,,,,,,,,,
O=[N+]([O-])C1=Cc2c(O)ccc(O)c2C2OC=CC12 (configuration not stated),30.2 µM,34.5 µM,> 74.5 µM,25.8 µM,> 71.9 µM,> 26.8 µM,29.9 µM,32.4 µM,32.6 µM,32.2 µM,,,,,,,,,,
COc1ccc(OC)c([N+](=O)[O-])c1-c1nc2sc(Cl)cn2c1/C=N/N=C(N)N,30.1 µM,> 100 µM,34.7 µM,38.5 µM,42.7 µM,> 100 µM,37.5 µM,60.7 µM,> 100 µM,50.2 µM,,,,,,,,,,
CCCCOc1ccc(/C=C/C2=[N+](CCO)CCO2)cc1,> 100 µM,> 100 µM,62.7 µM,> 100 µM,82.8 µM,67.1 µM,> 100 µM,> 100 µM,> 100 µM,> 100 µM,,,,,,,,,,
COc1ccc(Nc2nc3ccccc3nc2-c2cccs2)cc1OC,> 10 µM,> 10 µM,> 10 µM,> 10 µM,> 10 µM,> 10 µM,> 10 µM,> 10 µM,> 10 µM,> 10 µM,,,,,,,,,,
Cc1cc2c(cc1Cl)SSc1cc(Cl)c(C)cc1S(=O)(=O)Nc1nc(N)nn1C(O)n1nc(N)nc1NS2(=O)=O,> 10 µM,> 10 µM,> 10 µM,> 10 µM,> 10 µM,> 10 µM,> 10 µM,> 10 µM,> 10 µM,> 10 µM,,,,,,,,,,
COc1cc2ncnc(Nc3cccc(Br)c3)c2cc1OC,> 49.8 µM,20.6 µM,> 31.6 µM,> 52.1 µM,48 µM,> 89.8 µM,> 40.9 µM,28.7 µM,> 46.7 µM,14.3 µM,,,,,,,,,,
Fc1ccc(/C=C2\COCC3=C2NC(=S)NC3c2ccc(F)cc2)cc1 (configuration not stated),38.5 µM,30.1 µM,45 µM,76.2 µM,90.1 µM,45.7 µM,34.2 µM,50.7 µM,40.8 µM,33.3 µM,,,,,,,,,,
O=C1O/C(=C(\Br)c2ccc([N+](=O)[O-])cc2)c2ccccc21,> 100 µM,> 100 µM,> 71.4 µM,> 100 µM,> 100 µM,62.7 µM,> 100 µM,> 100 µM,> 100 µM,> 100 µM,,,,,,,,,,
O=C1C(NS(=O)(=O)c2ccccc2)=C(n2ccnc2)C(=O)c2ccccc21,> 100 µM,> 100 µM,> 100 µM,> 100 µM,> 100 µM,> 100 µM,> 100 µM,> 100 µM,> 100 µM,> 100 µM,,,,,,,,,,
COc1ccccc1C1C(C#N)=C(N)SC(N)=C1C#N,> 100 µM,> 100 µM,83 µM,> 100 µM,> 100 µM,70.4 µM,> 100 µM,> 100 µM,> 100 µM,> 100 µM,81.1 µM,91.6 µM,16.3 µM,7.71 µM,35.5 µM,26.6 µM,> 100 µM,97 µM,54 µM,67 µM
COC(=O)/C(=C(/C)c1ccco1)P(=O)(OC)OC,> 100 µM,> 100 µM,> 100 µM,> 100 µM,> 100 µM,> 100 µM,> 100 µM,> 100 µM,> 100 µM,> 100 µM,,,,,,,,,,
NCC(=O)N[C@H]1c2ccsc2/C(=N/O)[C@H]1O,> 100 µM,> 100 µM,> 100 µM,> 100 µM,> 100 µM,> 100 µM,> 100 µM,> 100 µM,> 100 µM,> 100 µM,,,,,,,,,,
CCCCCCc1cc2cc(C(=O)Nc3nc(C45CC6CC(CC(C6)C4)C5)cs3)c(=O)oc2cc1O,42.1 µM,,26.4 µM,30.1 µM,38.1 µM,50.5 µM,68 µM,33.2 µM,28.6 µM,23.6 µM,,,,,,,,,,
Cn1c2ccccc2n2c(=O)c(-c3ccc(Cl)cc3)nnc12,> 100 µM,> 100 µM,> 100 µM,> 100 µM,> 100 µM,> 100 µM,> 100 µM,> 100 µM,> 100 µM,> 100 µM,,,,,,,,,,
CCOC(=O)Cn1nnc2ccc(Nc3nc4ccccc4nc3C(=O)OCC)cc21,> 100 µM,> 100 µM,> 100 µM,> 100 µM,> 100 µM,> 100 µM,> 100 µM,> 100 µM,> 100 µM,> 100 µM,,,,,,,,,,
CCCCOC(=O)Nc1ccc(S(=O)(=O)Nc2c(Cl)cccc2Cl)cc1,42.5 µM,> 100 µM,48.7 µM,82.7 µM,83.8 µM,> 100 µM,> 100 µM,> 100 µM,> 100 µM,> 100 µM,,,,,,,,,,
C[N+](C)(N)Cc1nc(-c2ccc(Cl)cc2)no1,> 100 µM,> 100 µM,> 100 µM,> 100 µM,> 100 µM,> 100 µM,> 100 µM,> 100 µM,> 100 µM,> 100 µM,,,,,,,,,,
COC(=O)C12CCCN1CCC2,> 100 µM,> 100 µM,> 100 µM,> 100 µM,> 100 µM,> 100 µM,> 100 µM,> 100 µM,> 100 µM,> 100 µM,,,,,,,,,,
CC1OC1C(=O)P(=O)(O)O (configuration not stated),> 100 µM,> 100 µM,> 100 µM,> 100 µM,> 100 µM,> 100 µM,> 100 µM,> 100 µM,> 100 µM,> 100 µM,,,,,,,,,,
COc1nc2ncc([C@@H](OC(C)=O)[C@@H](COC(C)=O)OC(C)=O)nc2c(=O)n1C,> 100 µM,> 100 µM,> 100 µM,> 100 µM,> 100 µM,> 100 µM,> 100 µM,,> 100 µM,> 100 µM,,,,,,,,,,
CCOC(=O)N1CCC2(CC1)C[C@](Sc1ccccc1)(C(C)=O)[C@H](C)O2,> 100 µM,> 100 µM,> 100 µM,> 100 µM,> 100 µM,> 100 µM,> 100 µM,> 100 µM,> 100 µM,> 100 µM,,,,,,,,,,
Cc1ccc2[nH]c3c(c2c1)C1CCC(C(C)(C)C)CC1C1C(=O)N(c2ccc(Oc4ccccc4)cc2)C(=O)C31 (configuration not stated),42.6 µM,> 100 µM,3.07 µM,45.4 µM,> 68.2 µM,8.26 µM,> 100 µM,58.9 µM,21.6 µM,> 100 µM,,,,,,,,,,
Cc1ccc(N=NC(=Nc2ccc(F)cc2)c2ccc(N(CCC#N)CCC#N)cc2)cc1,> 100 µM,> 100 µM,> 100 µM,> 100 µM,> 100 µM,> 100 µM,91.3 µM,> 100 µM,> 100 µM,> 100 µM,,,,,,,,,,
